Assay [1] concerns the target T1, Endoribonuclease toxin MazF (Escherichia coli K-12, UniProt P0AE70).
T1 sequence (P0AE70 whole entry): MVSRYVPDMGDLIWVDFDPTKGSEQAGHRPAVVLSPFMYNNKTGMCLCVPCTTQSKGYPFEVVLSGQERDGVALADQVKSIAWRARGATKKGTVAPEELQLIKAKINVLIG
The assay can be described thus: substrate-only fluorescence increase artefacts – biochemical, single-stranded RNase substrate, counter-screen for MazEF activator project, dose response (AID 588502). The class given is functional. (Counterscreens check selectivity or assay interference.)

In assay [2] the target is T1, Endoribonuclease toxin MazF. The experiment in a line: activation of MazEF endoribonuclease cleavage – biochemical, fluorescence, single-stranded RNA substrate, uHTS hits, dose response (AID 588481). The class given is functional.
In assay [3] the target is T2, Estrogen receptor (Homo sapiens, UniProt P03372).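 Further: potency for inhibiting coactivator peptide recruitment to the receptor.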
T2 sequence (P03372 whole entry): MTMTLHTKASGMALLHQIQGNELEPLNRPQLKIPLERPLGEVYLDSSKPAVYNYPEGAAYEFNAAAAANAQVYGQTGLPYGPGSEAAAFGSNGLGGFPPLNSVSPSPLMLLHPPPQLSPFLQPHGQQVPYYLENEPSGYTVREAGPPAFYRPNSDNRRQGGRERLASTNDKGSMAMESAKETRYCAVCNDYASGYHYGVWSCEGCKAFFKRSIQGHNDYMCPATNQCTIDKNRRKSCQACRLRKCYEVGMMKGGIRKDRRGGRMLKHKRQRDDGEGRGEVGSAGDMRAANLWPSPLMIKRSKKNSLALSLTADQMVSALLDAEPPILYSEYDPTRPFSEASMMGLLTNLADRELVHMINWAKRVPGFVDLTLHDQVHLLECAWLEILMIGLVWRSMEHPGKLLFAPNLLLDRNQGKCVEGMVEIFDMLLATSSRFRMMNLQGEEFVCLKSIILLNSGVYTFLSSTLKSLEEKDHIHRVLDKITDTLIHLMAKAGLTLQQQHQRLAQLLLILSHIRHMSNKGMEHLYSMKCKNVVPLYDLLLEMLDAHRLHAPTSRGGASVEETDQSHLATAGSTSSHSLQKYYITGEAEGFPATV

Assay [4] deals with T3, Corticotropin-releasing factor receptor 2/Corticotropin-releasing factor-binding protein (Homo sapiens, UniProt P24387+Q13324).
T3 sequence (Q13324 whole entry): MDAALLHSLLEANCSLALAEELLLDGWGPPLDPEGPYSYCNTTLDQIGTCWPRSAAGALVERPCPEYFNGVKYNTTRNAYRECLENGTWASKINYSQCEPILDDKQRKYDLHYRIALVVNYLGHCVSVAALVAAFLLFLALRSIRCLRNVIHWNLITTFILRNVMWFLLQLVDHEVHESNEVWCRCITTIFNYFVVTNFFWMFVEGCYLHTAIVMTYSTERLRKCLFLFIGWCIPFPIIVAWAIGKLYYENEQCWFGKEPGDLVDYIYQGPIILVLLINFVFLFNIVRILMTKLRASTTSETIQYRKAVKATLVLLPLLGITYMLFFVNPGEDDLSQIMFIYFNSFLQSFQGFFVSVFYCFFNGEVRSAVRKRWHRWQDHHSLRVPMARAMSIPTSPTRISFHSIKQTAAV
T3 sequence (P24387 whole entry): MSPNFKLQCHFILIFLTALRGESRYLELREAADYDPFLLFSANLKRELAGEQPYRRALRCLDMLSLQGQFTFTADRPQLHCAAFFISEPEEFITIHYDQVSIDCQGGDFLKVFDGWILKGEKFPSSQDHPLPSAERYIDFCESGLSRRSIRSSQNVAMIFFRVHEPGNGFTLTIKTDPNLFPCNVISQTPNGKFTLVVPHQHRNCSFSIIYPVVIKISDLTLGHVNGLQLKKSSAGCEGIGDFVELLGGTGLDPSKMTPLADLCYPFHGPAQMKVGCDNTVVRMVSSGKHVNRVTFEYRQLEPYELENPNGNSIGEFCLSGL
The assay can be described thus: Dose Response confirmation of uHTS hits for small molecule antagonists of the CRF-binding protein and CRF-R2 receptor complex. It counts as functional. Particulars: read-out: IC50_Mean.

Assay [5] concerns the target T3, Corticotropin-releasing factor receptor 2/Corticotropin-releasing factor-binding protein. The experiment in a line: activators of CRF receptor 2 with binding protein – uHTS hits, confirmation (AID 602473). It counts as functional. Particulars: read-out: EC50_Mean.
Assay [6] is described as follows: blockers of CRF-binding protein–CRF-R2 complex – cell-based, uHTS hits, 384-well, dose response (AID 651639). It counts as functional, Homo sapiens. Particulars: read-out: IC50_Mean.
For assay [7], the target named is Prothrombin (Bos taurus, UniProt P00735). The assay can be described thus: thrombin protease inhibitors – biochemical, fluorescence polarization, uHTS hits, dose response (AID 602369). It counts as functional.
Assay [8] relates to Streptococcus. The assay can be described thus: GAS UMAA2166 growth inhibition – luminescence, BacTiterGlo, counter-screen for streptokinase expression inhibitor project, dose response (AID 1915).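 Further: potency for reduction of bacterial viability or growth.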 It counts as functional, organism-based.
Assay [9] concerns the target 26S proteasome non-ATPase regulatory subunit 14 (Homo sapiens, UniProt O00487). The assay can be described thus: inhibition of proteasome subunit RPN11 – biochemical, fluorescence polarization, uHTS hits, confirmation (AID 602368). It counts as functional. (Polarisation of emitted light reports the rotation of a fluorescent probe.)
The target of assay [10] is 72 kDa type IV collagenase (Homo sapiens, UniProt P08253). The experiment in a line: Dose Response validation of uHTS RPN11 inhibitor hits using a MMP-2 Fluorescence assay. The class given is functional.
For assay [11], the system named is Streptococcus sp. 'group A'. The experiment in a line: Streptococcus pyogenes SK(-)GAS viability under kanamycin – luminescence, BacTiterGlo, confirmation, counter-screen for streptokinase expression inhibitor project, dose response (AID 1900). It counts as functional, organism-based.
For assay [12], the target named is Glucose-6-phosphate 1-dehydrogenase (Homo sapiens, UniProt P11413). The assay can be described thus: inhibition of Homo sapiens G6PD, dose series – biochemical, fluorescence, selectivity assay for P. falciparum G6PD inhibitor project, dose response (AID 504792). It counts as functional.
In assay [13] the test system is Vero. The experiment in a line: cells. The class given is functional, cell-based. The following applies: Chlorocebus sabaeus.
Assay [14] has as its target Genome polyprotein (dengue virus type 2, UniProt P29990). The assay can be described thus: flavivirus cap methylation enzyme inhibition – biochemical, confirmation dose response, primary screen (AID 588689). The class given is functional.
Assay [15] in a line: cells. The class given is functional, cell-based.
Assay [16] has as its target Photoreceptor-specific nuclear receptor (Homo sapiens, UniProt Q9Y5X4). The class given is functional, cell-based.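 Further: CHO-S cells with Gal4-NCOR and VP16-NR2E3 two-hybrid luciferase reporter.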
A short description of assay [17]: cells. The class given is functional, cell-based. The source holds these as a separate data set.
Assay [18] deals with Induced myeloid leukemia cell differentiation protein Mcl-1 (Homo sapiens, UniProt Q07820). The class given is functional.
Assay [19] is described as follows: activation of miR-122 Renilla sensor silencing – cell-based, Huh7 psiCHECK-miR122, Renilla luciferase, cherry-picked, dose response (AID 651956).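 Further: huh7 hepatoma cells stably carrying a psiCHECK-2 miR-122 sensor plasmid; renilla luciferase signal reporting endogenous miR-122 activity after 48 h compound exposure.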 The class given is functional.
Assay [20] concerns H9c2. The assay can be described thus: cells. It counts as functional, cell-based. Particulars: Rattus norvegicus, H9c2, Myocardium.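 Further: confirmatory concentration-response retest of ultra-high-throughput screening hits for modulation of myocardial damage; cell death induced by hydrogen peroxide oxidative stress; compound pretreatment for 60 min then peroxide exposure for 2 h; potency is for protecting the cells against peroxide damage rather than for killing them.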
The target in assay [21] is Beta Lactamase (Pseudomonas aeruginosa, UniProt Q932Y6). The assay can be described thus: BLA reporter interference, concentration series – BLA reporter cells, FRET fluorescence, artefact control for TLR9-MyD88 binding inhibitor project, dose response (AID 588341).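 Further: cell based assay in CHO-K1 cells stably expressing beta-lactamase.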 It counts as cell-based.
Assay [22] has as its system CHO. The assay can be described thus: CHO cell viability loss, potency – luminescence, cytotoxicity control for TLR9-MyD88 binding inhibitor project, dose response (AID 588339).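 Further: CHO cells stably coexpressing TLR9 and MyD88 fusions from primary screen; compound exposure lasted 48 hours before viability readout.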 It counts as functional, cell-based, hamster. The following applies: Cricetulus griseus.
Assay [23] has as its target T4, Calpain-2 catalytic subunit (Sus scrofa, UniProt P43367).
T4 sequence (P43367 whole entry): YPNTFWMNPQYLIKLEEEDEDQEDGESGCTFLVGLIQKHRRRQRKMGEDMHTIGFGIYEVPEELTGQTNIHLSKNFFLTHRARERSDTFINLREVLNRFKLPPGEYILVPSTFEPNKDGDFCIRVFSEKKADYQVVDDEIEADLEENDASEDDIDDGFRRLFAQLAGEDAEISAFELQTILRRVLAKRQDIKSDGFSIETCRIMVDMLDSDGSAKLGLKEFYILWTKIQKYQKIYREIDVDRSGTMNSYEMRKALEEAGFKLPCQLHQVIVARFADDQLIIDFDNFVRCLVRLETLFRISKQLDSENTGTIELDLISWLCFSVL
The experiment in a line: m-calpain protease blockers, concentration series – biochemical, fluorogenic peptide substrate, dose response (AID 1420). The class given is functional.

The target in assay [24] is Protein Wnt-3a (Mus musculus, UniProt P27467). The assay can be described thus: antagonism of Wnt3a pathway luciferase reporter – Wnt-LIGHT cells, luminescence, selectivity assay for Gli-SUFU antagonist project, dose response (AID 651570).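 Further: Wnt-LIGHT reporter cells stimulated with conditioned medium from Wnt3a-producing cells.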 The class given is functional. Particulars: read-out: IC50_Mean.
Assay [25] can be described thus: Trypanosoma cruzi growth suppression in host cells – NIH3T3 host cells, beta-gal luminescence, confirmation (AID 2044).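 Further: intracellular parasites grown in NIH/3T3 mouse fibroblasts as host cells; luminescent beta-galactosidase reporter signal from transgenic T. cruzi replicating inside host cells; inhibitors lower the luminescence signal.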 It counts as functional, cell-based.
Assay [26] is described as follows: NIH3T3 cell viability loss – ATP luminescence, mouse fibroblasts, counter-screen, dose response (AID 2010).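 Further: cells exposed to compound for about 90 hours before reading.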 The class given is functional, cell-based.
The subject of assay [27] is INS1. The assay can be described thus: INS-1E survival protection against cytokine death – cell-based, luminescence, retest, dose response (AID 449756).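 Further: cell death triggered by IL-1 beta plus TNF-alpha plus IFN-gamma mixture; protective hits raise ATP signal compared with cytokine alone wells.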 It counts as functional. The following applies: Rattus norvegicus.

Twelve compounds from ChEMBL document CHEMBL1201862, “PubChem BioAssay data set” (2004) can be followed below.

Molecules are shown by their SMILES. Active and inactive are the calls of the source.

Consider `Cc1nc(SCC(=O)c2cc3ccccc3oc2=O)c(C#N)c(-c2cccs2)c1C(=O)Nc1ccccc1`, for which the EC50 in assay [1] and in [2] was > 99 µM (inactive) throughout.

Regarding `Cc1c(/C=N/n2cnnc2)c2ccccc2n1CCOc1ccc(Cl)cc1`, in assay [3], the IC50 is on record as > 50 µM (not active). For the same compound, the EC50 in [1] and in [2] was > 99 µM (inactive) in each case.

For `Cc1noc(C)c1CSCc1ccc(Cl)cc1`, the results for the IC50 in assay [4] and in [6] were 35.6 µM (active) and > 20 µM (inactive), respectively. In assay [5], the EC50 was > 53 µM (inactive).

Turning to `CO/N=C(/C(=O)N[C@@H]1C(=O)N2C(C(=O)O)=CCS[C@H]12)c1cnc(N)s1`, the IC50 was 54.1 µM (active) in assay [7], 1.33 µM (active) in assay [9] and 0.122 µM (active) in assay [10]. In addition, the EC50 in [8] and in assay [11] was < 0.06 µM (active) each time.

For the compound `O=C(COc1cccc2ccccc12)Nc1ccc(Cl)cc1C(=O)O`, the IC50 in assay [12] is 52.6 µM (inactive); in assay [13], > 25 µM (active); in assay [14] it was 37.7 µM (active); in [16], 5.31 µM (active). Moreover, the EC50 in assay [15] and in assay [17] was > 350 µM (not active) each time.

With `COc1ccc(-c2ccc(/C=C3/C(=N)N4C=CSC4=NC3=O)o2)c([N+](=O)[O-])c1`, in [18], the IC50 is 1.52 µM (active). Moreover, the EC50 in assay [1] was > 99 µM (inactive); in assay [2] it was 19.6 µM (active).

Regarding `C[C@@H]1CN([C@@H](C)CO)S(=O)(=O)c2ccc(C3=CCCCC3)cc2O[C@@H]1CN(C)C(=O)Cc1ccncc1`, the AC50 (in general, the midpoint of the concentration-response curve, whichever way the signal moves) in [19] is 6.22 µM (active).

Take `COc1cc2oc3cc(C#Cc4ccc(N)cc4)ccc3c(=O)c2cc1OC`: the results for the IC50 in [20], in [21] and in assay [22] were > 79 µM (inactive), 3.6 µM (active) and > 49.7 µM (inactive), respectively.

Take `O=C(NCc1ccc(F)cc1)c1cccc2c1C(=O)c1ccc(N3CCOCC3)cc1S2(=O)=O`: the IC50 was 24.1 µM (active) in assay [7], 16.6 µM (active) in assay [9] and > 100 µM (inactive) in assay [10].

As for `Cc1cc(C)c(NC(=O)/C(=C/c2ccccc2)c2ccccc2)c(C)c1`, the IC50 in [4] was 10.4 µM (active); in assay [23] it was > 50 µM (not active); in assay [6] it was > 20 µM (inactive). In addition, the EC50 in assay [5] is > 53 µM (inactive).

As for `CCOc1ccc(-n2c(-c3ccc(Cl)cc3)c[n+]3c2SCC3)cc1`, the IC50 in [24] was 1.33 µM (active). The EC50 in assay [25] was 0.86 µM (active); in [26] it was 5.18 µM (active).

For the compound `Cc1sc2ncnc(NCc3cccs3)c2c1C`, in assay [24], the IC50 is 1.81 µM (active). Besides, the concentration at half-maximal activity (AC50) in [27] is 4.79 µM (active).
